Measurements reported in US8349880B2, “Bicyclic compounds for the reduction of beta-amyloid production” (Bristol-Myers Squibb Company, priority 2009, dated 2013).

What follows are molecules tested on Aβ1-42 production (assay: Cellular assay for inhibition of Aβ1-42 production (H4 APP751 SWE clone 8.20)). Conditions: 19 h, H4 APP751 SWE clone 8.20 cells, 19 h incubation; read-out: Activity Rating (Aβ42 cellular IC50, given as a number).
Type: cell-based
Protocol: Cellular assays for inhibition of Aβ1-40 and Aβ1-42 production
H4 cells stably transfected with APP751 containing the Swedish mutation (H4 APP751 SWE clone 8.20, developed at BMS) were maintained in log phase through twice weekly passage at a 1:20 split. For IC50 determinations, 30 μl cells (1.5×10^4 cells/well) in DMEM media containing 0.0125% BSA (Sigma A8412) were plated directly into 384-well compound plates (Costar 3709) containing 0.1 μl serially diluted compound in DMSO. Following incubation for 19 h in 5% CO2 at 37° C., plates were briefly centrifuged (1000 rpm, 5 min). A 10 μl aliquot from each well was transferred to a second assay plate (Costar 3709) for Aβ40 measurements. Antibody cocktails were freshly prepared by dilution into 40 mM Tris-HCl (pH 7.4) with 0.2% BSA and added to assay plates. For Aβ42 measurements, antibodies specific for the Aβ42 neoepitope (565, developed at BMS; conjugated to the Wallac reagent (Perkin Elmer)) and the N-terminal sequence of Aβ peptide (26D6, developed at SIBIA; conjugated to APC (Perkin Elmer)) were mixed and 20 μl of the mixture was added to each well of the incubated cell plate yielding a final concentration of 0.8 ng/well 565 and 75 ng/well 26D6. For the Aβ40 measurements, antibodies specific for the Aβ40 neoepitope (TSD, developed at BMS; conjugated to the Wallac reagent (Perkin Elmer)) and 26D6 as described above were mixed and 20 μl of the mixture was added to the 10 μl aliquots which had been removed previously from the cell plate yielding a final concentration of 1.6 ng/well TSD and 17.5 ng/well 26D6. Assay plates containing antibodies were sealed with aluminum foil and incubated overnight at 4° C. Signal was determined using a Viewlux counter (Perkin Elmer) and IC50 values determined using curve fitting in CurveMaster (Excel Fit based).

Row | IC50 | SMILES
1 | 47 nM | COc1cc(Nc2nc3n(n2)CCCC[C@@H]3c2ccc(F)cc2)c(F)cc1-n1cnc(C)n1 (single isomer, unassigned) [Example 30]
2 | 4 nM | COc1cc(Nc2nc3n(n2)CCCC[C@H]3c2cc(F)c(F)c(F)c2)ccc1-n1cnc(Cl)c1 (single isomer, unassigned) [Example 51]
3 | 9 nM | Cc1ncn(-c2ccc(Nc3nc4n(n3)CCCC[C@H]4c3ccc(OC(F)(F)F)cc3)cc2F)n1 (single isomer, unassigned) [Example 97]
4 | 5 nM | COc1cc(Nc2nc3n(n2)CCCC[C@H]3c2ccc(OCC(F)(F)F)cc2)ccc1-n1cnc(Cl)c1 (single isomer, unassigned) [Example 106]
5 | 107 nM | COc1cc(Nc2nc3n(n2)CCCC[C@@H]3c2ccc(OCC(F)(F)F)cc2)c(F)cc1-n1cnc(C)n1 (single isomer, unassigned) [Example 118]
6 | 3 nM | C=C1CCn2nc(Nc3ccc(-n4cnc(Cl)c4)c(OC)c3)nc2[C@H](c2ccc(F)cc2)C1 (single isomer, unassigned) [Example 134]
7 | 2 nM | COc1cc(Nc2nc3n(n2)CC[C@](C)(O)C[C@@H]3c2ccc(F)cc2)ccc1-n1cnc(Cl)c1 (single isomer, unassigned) [Example 149, 2,2,2-trifluoroacetate]

Same assay, conditions: 19 h, H4 APP751 SWE clone 8.20 cells, 19 h incubation; read-out: Activity Rating (based on Aβ42 cellular IC50 values)

Row | SMILES | IC50
8 | COc1cc(Nc2nc3n(n2)CCCC[C@@H]3c2ccc(F)cc2F)ccc1-n1cnc(Cl)c1 (single isomer, unassigned) [Example 37] | < 10 nM
9 | COc1cc(Nc2nc3n(n2)CCCC[C@H]3c2cccc(Cl)c2)ccc1-n1cnc(Cl)c1 (single isomer, unassigned) [Example 54] | < 10 nM
10 | COc1cc(Nc2nc3n(n2)CCCC[C@@H]3c2cccc(Cl)c2)ccc1-n1cnc(Cl)c1 (single isomer, unassigned) [Example 55] | < 10 nM
11 | COc1cc(Nc2nc3n(n2)CCCC[C@H]3c2ccccc2F)ccc1-n1cnc(Cl)c1 (single isomer, unassigned) [Example 58] | < 10 nM
12 | Cc1ncn(-c2ccc(Nc3nc4n(n3)CCCC[C@@H]4c3ccc(OC(F)(F)F)cc3)cc2F)n1 (single isomer, unassigned) [Example 98] | 10 to 100 nM
13 | Cc1ncnn1-c1ccc(Nc2nc3n(n2)CCCC[C@H]3c2ccc(OC(F)(F)F)cc2)cc1F (single isomer, unassigned) [Example 100] | < 10 nM
14 | COc1cc(Nc2nc3n(n2)CCCC[C@H]3c2ccc(OC(C)C)cc2)ccc1-n1cnc(Cl)c1 (single isomer, unassigned) [Example 103] | < 10 nM
15 | COc1cc(Nc2nc3n(n2)CCCC[C@@H]3c2ccc(OC(C)C)cc2)ccc1-n1cnc(Cl)c1 (single isomer, unassigned) [Example 104] | 10 to 100 nM
16 | COc1cc(Nc2nc3n(n2)CCCC[C@@H]3c2ccc(OCC(F)(F)F)cc2)ccc1-n1cnc(Cl)c1 (single isomer, unassigned) [Example 107] | 10 to 100 nM
17 | Cc1ncn(-c2ccc(Nc3nc4n(n3)CCCC[C@H]4c3ccc(OCC(F)(F)F)cc3)cc2F)n1 (single isomer, unassigned) [Example 114] | 10 to 100 nM
18 | Cc1ncn(-c2ccc(Nc3nc4n(n3)CCCC[C@@H]4c3ccc(OCC(F)(F)F)cc3)cc2F)n1 (single isomer, unassigned) [Example 115] | 10 to 100 nM
19 | Cc1ncnn1-c1ccc(Nc2nc3n(n2)CCCC[C@H]3c2ccc(OCC(F)F)cc2)cc1F (single isomer, unassigned) [Example 120] | 10 to 100 nM
20 | Cc1ncnn1-c1ccc(Nc2nc3n(n2)CCCC[C@@H]3c2ccc(OCC(F)F)cc2)cc1F (single isomer, unassigned) [Example 121] | 100 to 1000 nM
21 | Cc1ncn(-c2ccc(Nc3nc4n(n3)CCC[C@@H]4c3ccc(OC(F)(F)F)cc3)cc2F)n1 (single isomer, unassigned) [Example 124] | 10 to 100 nM
22 | COc1cc(Nc2nc3n(n2)CCCC[C@@H]3c2ccc(OC(F)(F)F)cc2)ccc1-n1cnc(Cl)c1 (single isomer, unassigned) [Example 125] | < 10 nM
23 | C=C1CCn2nc(Nc3ccc(-n4cnc(Cl)c4)c(OC)c3)nc2[C@@H](c2ccc(F)cc2)C1 (single isomer, unassigned) [Example 135] | 10 to 100 nM
24 | COc1cc(Nc2nc3n(n2)CC[C@@](C)(O)C[C@@H]3c2ccc(F)cc2)ccc1-n1cnc(Cl)c1 (single isomer, unassigned) [Example 148] | < 10 nM
25 | COc1cc(Nc2nc3n(n2)CCCC[C@H]3c2ccc(OCC(F)F)cc2)ccc1-n1cnc(Cl)c1 (single isomer, unassigned) [Example 162] | 10 to 100 nM
26 | COc1cc(Nc2nc3n(n2)CCCC[C@@H]3c2ccc(OCC(F)F)cc2)ccc1-n1cnc(Cl)c1 (single isomer, unassigned) [Example 163] | 10 to 100 nM
27 | COc1cc(Nc2nc3n(n2)CCCC[C@@H]3c2ccc(OC(F)(F)F)cc2)cc(F)c1-n1cnc(C)n1 (single isomer, unassigned) [Example 169] | 100 to 1000 nM

Now from value to molecule:

Row | IC50 | SMILES
28 | < 10 nM | COc1cc(Nc2nc3n(n2)CCCC[C@H]3c2ccc(F)cc2F)ccc1-n1cnc(Cl)c1 (single isomer, unassigned) [Example 36]
29 | < 10 nM | COc1cc(Nc2nc3n(n2)CCCC[C@H]3c2cc(F)cc(F)c2)ccc1-n1cnc(Cl)c1 (single isomer, unassigned) [Example 39]
30 | 10 to 100 nM | COc1cc(Nc2nc3n(n2)CCCC[C@@H]3c2cc(F)cc(F)c2)ccc1-n1cnc(Cl)c1 (single isomer, unassigned) [Example 40]
31 | < 10 nM | COc1cc(Nc2nc3n(n2)CCCC[C@H]3c2cccc(F)c2)ccc1-n1cnc(Cl)c1 (single isomer, unassigned) [Example 45]
32 | 10 to 100 nM | COc1cc(Nc2nc3n(n2)CCCC[C@@H]3c2cccc(F)c2)ccc1-n1cnc(Cl)c1 (single isomer, unassigned) [Example 46]
33 | < 10 nM | COc1cc(Nc2nc3n(n2)CCCC[C@@H]3c2cc(F)c(F)c(F)c2)ccc1-n1cnc(Cl)c1 (single isomer, unassigned) [Example 52]
34 | < 10 nM | COc1cc(Nc2nc3n(n2)CCCC[C@@H]3c2ccccc2F)ccc1-n1cnc(Cl)c1 (single isomer, unassigned) [Example 59]
35 | 10 to 100 nM | COc1cc(Nc2nc3c(s2)CCC[C@H]3c2ccccc2)ccc1-n1cnc(Cl)c1 (single isomer, unassigned) [Example 69]
36 | 100 to 1000 nM | COc1cc(Nc2nc3c(s2)CCC[C@@H]3c2ccccc2)ccc1-n1cnc(Cl)c1 (single isomer, unassigned) [Example 70]
37 | < 10 nM | COc1cc(Nc2nc3n(n2)CCCC[C@H]3c2ccc(F)cc2)ccc1-n1cnc(Cl)n1 (single isomer, unassigned) [Example 87]
38 | 10 to 100 nM | COc1cc(Nc2nc3n(n2)CCCC[C@@H]3c2ccc(F)cc2)ccc1-n1cnc(Cl)n1 (single isomer, unassigned) [Example 88]
39 | 10 to 100 nM | Cc1ncnn1-c1ccc(Nc2nc3n(n2)CCCC[C@H]3c2ccc(F)cc2)cc1F (single isomer, unassigned) [Example 94]
40 | 10 to 100 nM | Cc1ncnn1-c1ccc(Nc2nc3n(n2)CCCC[C@@H]3c2ccc(OC(F)(F)F)cc2)cc1F (single isomer, unassigned) [Example 101]
41 | < 10 nM | Cc1ncnn1-c1ccc(Nc2nc3n(n2)CCCC[C@H]3c2ccc(OCC(F)(F)F)cc2)cc1F (single isomer, unassigned) [Example 111]
42 | 10 to 100 nM | Cc1ncnn1-c1ccc(Nc2nc3n(n2)CCCC[C@@H]3c2ccc(OCC(F)(F)F)cc2)cc1F (single isomer, unassigned) [Example 112]
43 | 100 to 1000 nM | Cc1ncn(-c2ccc(Nc3nc4n(n3)CCC[C@H]4c3ccc(OC(F)(F)F)cc3)cc2F)n1 (single isomer, unassigned) [Example 123]
44 | 10 to 100 nM | Cc1ncn(-c2ccc(Nc3nc4n(n3)CCCC[C@H]4c3ccc(OC(F)(F)F)c(F)c3)cc2F)n1 (single isomer, unassigned) [Example 165]
45 | < 10 nM | Cc1ncn(-c2ccc(Nc3nc4n(n3)CCCC[C@@H]4c3ccc(OC(F)(F)F)c(F)c3)cc2F)n1 (single isomer, unassigned) [Example 166]
46 | 10 to 100 nM | COc1cc(Nc2nc3n(n2)CCCC[C@H]3c2ccc(OC(F)(F)F)cc2)cc(F)c1-n1cnc(C)n1 (single isomer, unassigned) [Example 168]
47 | < 10 nM | COc1cc(Nc2nc3n(n2)CCCC[C@H]3c2ccc(OC(F)(F)F)cc2)c(F)cc1-n1cnc(C)n1 (single isomer, unassigned) [Example 176]

Same assay, conditions: H4 APP751 SWE clone 8.20 cells, 19 h incubation; read-out: Activity Rating (based on Aβ42 cellular IC50 values)

Row | IC50 | SMILES
48 | 10 to 100 nM | COc1cc(Nc2nc3n(n2)CCCC[C@@H]3c2ccc(OC(F)(F)F)cc2)ccc1-n1cnc(Cl)c1 (single isomer, unassigned) [Example 126]
